Measurements from BindingDB's records for patent US12473289 (Amgen, 2025).

Molecular target: Acyl-CoA (8-3)-desaturase (Homo sapiens, UniProt O60427)
Experiment: Inhibitory Activity using DGLA-CoA and Arachidonyl-CoA Mass Spectrometric Assays
Experimental: Membrane preparations of D5D-overexpressing HEK293 6E cells were prepared in which the total protein concentration was 5.6 mg/mL.

Chain of Acyl-CoA (8-3)-desaturase (O60427 whole entry): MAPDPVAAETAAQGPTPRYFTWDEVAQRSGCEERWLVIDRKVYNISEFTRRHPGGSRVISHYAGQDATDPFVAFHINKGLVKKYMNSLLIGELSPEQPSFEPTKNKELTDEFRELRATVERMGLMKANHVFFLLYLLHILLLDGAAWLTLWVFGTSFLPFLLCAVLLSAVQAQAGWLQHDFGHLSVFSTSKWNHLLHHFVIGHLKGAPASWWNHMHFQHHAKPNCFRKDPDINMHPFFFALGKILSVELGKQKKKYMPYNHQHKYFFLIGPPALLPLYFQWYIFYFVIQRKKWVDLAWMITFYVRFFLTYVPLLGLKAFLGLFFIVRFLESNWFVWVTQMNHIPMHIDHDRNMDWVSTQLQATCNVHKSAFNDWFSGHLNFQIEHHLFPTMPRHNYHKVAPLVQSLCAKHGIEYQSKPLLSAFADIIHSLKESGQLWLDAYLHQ

## COc1ccn2c(=O)c(-c3ccc(OC(F)(F)F)cc3F)c(C(F)(F)F)nc2c1 [US12473289, Example 1-9]
  IC50: 5.9 nM

## COc1ccn2c(=O)c(-c3cnn(-c4cccc(C(F)(F)F)c4)c3)c(C(F)(F)F)nc2c1 [US12473289, Example 1-19]
  IC50: 345 nM

## CSc1ccn2c(=O)c(-c3ccc(OCC(F)(F)F)cc3)c(C(F)(F)F)nc2c1 [US12473289, Example 1-35]
  IC50: 10.4 nM

## COC(=O)c1ccn2c(=O)c(-c3ccc(OCC(F)(F)F)cc3)c(C(F)(F)F)nc2c1 [US12473289, Example 1-36]
  IC50: 199 nM

## COc1ccn2c(=O)c(-c3ccc(OCC4CC4)cc3)c(C(F)(F)F)nc2n1 [US12473289, Example 1-37]
  IC50: 13.1 nM

## COc1ccn2c(=O)c(-c3ccc(OCC(F)(F)F)nc3)c(C(F)(F)F)nc2n1 [US12473289, Example 1-70]
  IC50: 262 nM

## Nc1ccn2c(=O)c(-c3ccc(OCC(F)(F)F)cc3)c(C(F)(F)F)nc2c1 [US12473289, Example 6-2]
  IC50: 6.8 nM

## O=c1c(-c2cnn(CCC(F)(F)F)c2)c(C(F)(F)F)nc2cc(OCF)ccn12 [US12473289, Example 17-3]
  IC50: 29.6 nM

## O=c1ccn2c(=O)c(-c3cnn(CC(F)(F)C(F)(F)F)c3)c(C(F)(F)F)[nH]c2c1 [US12473289, Example 18]
  IC50: 132 nM

## O=c1c(-c2ccc(OCC(F)(F)F)cc2)c(C(F)(F)F)nc2cc(C(F)F)ccn12 [US12473289, Example 32]
  IC50: 141 nM

## COC1=CC2NC(C(F)(F)F)=C(C3C=NC(OCC(F)(F)F)=NC3)C(=O)N2C=C1 (stereo unspecified) [US12473289, Example 37]
  IC50: 87.6 nM

## O=C1C(C2C=NN(CC(F)(F)C(F)(F)F)C2)=C(C(F)(F)F)NC2C=C(OCF)C=CN12 (stereo unspecified) [US12473289, Example 45]
  IC50: 10.1 nM

## O=C1C(C2C=NN(CC(F)(F)C(F)(F)F)C2)=C(C(F)(F)F)NC2C=C(OCCl)C=CN12 (stereo unspecified) [US12473289, Example 46]
  IC50: 16.6 nM

## O=C1C(C2C=NN(CC(F)(F)C(F)(F)F)C2)=C(C(F)(F)F)NC2C=C(OCF)C=NN12 (stereo unspecified) [US12473289, Example 47]
  IC50: 33.5 nM

## O=C1C(C2C=NN(CC(F)(F)C(F)(F)F)C2)=C(C(F)(F)F)NC2C=C(OCCl)C=NN12 (stereo unspecified) [US12473289, Example 48]
  IC50: 119 nM

## COc1cc2nc(C(F)(F)F)c(-c3cnn(C[C@@H]4CC4(F)F)c3)c(=O)n2cc1F [US12473289, Example 72]
  IC50: 54.9 nM
